Measured values reported in PubChem BioAssay AID651818 (Broad Institute, 2012).
Results filed as inconclusive are left out.

Tested on: intracellular Trypanosoma cruzi in host cells, plate reader
Test: intracellular Trypanosoma cruzi inhibitors in host cells – cell-based, plate reader, cherry-pick samples, set 3, dose response (AID 651818)

`C[C@@H]1CN([C@@H](C)CO)C(=O)c2cccc(NC(=O)c3ccncc3)c2O[C@H]1CN(C)Cc1ccc(Oc2ccccc2)cc1` was tested, and the AC50 was < 75 nM.
